Source: ChEMBL document CHEMBL5036360, “Pinguisane Sesquiterpenoids from the Chinese Liverwort Trocholejeunea sandvicensis and Their Anti-Inflammatory Activity” (J Nat Prod, 2022)
The source made the active and inactive calls. The rule behind the calls is not given here.

Assays:
RAW264.7 [1] = assay: Antiinflammatory activity in mouse RAW264.7 cells assessed as inhibition of LPS-induced NO production at 100 uM measured after 24 hrs by Griess method; format: functional
RAW264.7 [2] = assay: Cytotoxicity against mouse RAW264.7 cells […] measured after 24 hrs by MTT assay; format: cell-based; conditions: RAW264.7, 24 h
Danio rerio = species on record: Danio rerio; assay: Antiinflammatory activity in transgenic fluorescent Zebrafish assessed as reduction in CuSO4 induced number of macrophage migration at 10 to 50 uM measured after 1 hr by fluorescence microscopic analysis; format: functional, organism-based; conditions: dose 10-50 µM

SMILES	Activity (RAW264.7 [1])	IC50 (RAW264.7 [2]) [µM]	Activity (Danio rerio)
C=C1[C@]2(C)CC[C@@H](C)[C@]2(C)C[C@@]2(O)O[C@@H](OCC)[C@H](O)[C@@]12OCC	inactive	> 100	
CC1=C(CC(=O)O)C(=O)C[C@@]2(C)[C@H](C)CC[C@@]12C	inactive	> 100	
CCOC(=O)C1=C(C)[C@]2(C)CC[C@@H](C)[C@]2(C)CC1=O	inactive	> 100	
C[C@@H]1CC[C@@]2(C)[C@H](C)C3=CC(=O)O[C@]3(O)C[C@@]12C	96.28%	> 100	inactive
C=C1[C@@]2(CC=O)O[C@H](OC2=O)[C@@]2(C)[C@H](C)CC[C@@]12C	83.15%	> 100	inactive
CCOC(=O)/C=C1\C(=O)C[C@@]2(C)[C@H](C)CC[C@@]2(C)[C@@H]1C	inactive	> 100	
CO[C@@]12C[C@@]3(C)[C@H](C)CC[C@@]3(C)[C@H](C)C1=CC(=O)O2	inactive	> 100	
C[C@@H]1CC[C@@]2(C)[C@H](C)C3=CC(=O)N[C@@H]3C[C@@]12C	inactive	> 100	
C[C@@H]1CC[C@@]2(C)[C@H](C)[C@]3(C[C@@]12C)C(=O)O[C@H]1O[C@H]13	inactive	> 100	
C[C@@H]1CC[C@@]2(C)[C@H](C)C3=CC(=O)NC3=C[C@@]12C	inactive	> 100	
CCO[C@@]12C[C@@]3(C)[C@H](C)CC[C@@]3(C)[C@H](C)C1=CC(=O)O2	83.54%	> 100	Active
